Experimental data published in patent US8546440B2, “Substituted bicyclic imidazole derivatives as gamma secretase modulators” (Janssen Pharmaceuticals, Inc., priority 2008, dated 2013).

Assays:
Type in all cases: cell-based
Aβ42 [1] = experiment: Screening for γ-secretase-modulating activity, Method 1: Aβ42 sandwich ELISA in supernatant of SKNBE2 cells carrying APP 695 wild type (Tables 12a, 12b); details: Table 12b, Method 1, SKNBE2 cells carrying APP 695 wild type, cell supernatant ELISA, averaged IC50 values, percentage of control vs log concentration
In short: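 Aβ42 levels in the supernatant were measured by ELISA with 450 nm colorimetric read-out after 18 h compound exposure of wild-type APP695 SKNBE2 cells plated one day earlier. IC50 was fitted with a 4-parameter model, either with fixed top/bottom and a Hill slope of 1, or as averaged values from % of vehicle control; WST-1 was used to flag cytotoxicity.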

Aβtotal [2] = experiment: Screening for γ-secretase-modulating activity, Method 1: Aβtotal sandwich ELISA in supernatant of SKNBE2 cells carrying APP 695 wild type (Tables 12a, 12b); details: Table 12b, Method 1, SKNBE2 cells carrying APP 695 wild type, cell supernatant ELISA, averaged IC50 values
In short: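 Aβtotal in conditioned medium was measured by 6E10/biotin-4G8 sandwich ELISA with fluorogenic peroxidase read-out. Cells were wild-type APP 695 SKNBE2, treated 18 hours in glutamine-supplemented Ultraculture. IC50 came from 4-parameter fits of inhibition, or percent of control, against concentration; toxicity was checked by WST-1.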

Aβ42 [3] = experiment: Screening for γ-secretase-modulating activity, Method 2: Aβ42 Alphalisa in supernatant of SKNBE2 cells carrying APP 695 wild type (Table 12c); details: Method 2, Table 12c, incubated overnight
Protocol: (§1) Screening was carried out using SKNBE2 cells carrying the APP 695—wild type, grown in Dulbecco's Modified Eagle's Medium/Nutrient mixture F-12 (DMEM/NUT-mix F-12) (HAM) provided by Invitrogen (cat no. 10371-029) containing 5% Serum/Fe supplemented with 1% non-essential amino acids, 1-glutamine 2 mM, Hepes 15 mM, penicillin 50 U/ml (units/ml) en streptomycin 50 μg/ml. Cells were grown to near confluency.
(§2) The screening was performed using a modification of the assay as described in Citron et al (1997) Nature Medicine 3: 67. Briefly, cells were plated in a 384-well plate at 10^4 cells/well in Ultraculture (Lonza, BE12-725F) supplemented with 1% glutamine (Invitrogen, 25030-024), 1% non-essential amino acid (NEAA), penicillin 50 U/ml en streptomycin 50 μg/ml in the presence of test compound at different test concentrations. The cell/compound mixture was incubated overnight at 37° C., 5% CO2, The next day the media were assayed by two sandwich immuno-assays, for Aβ42 and Aβtotal.
(§3) Aβtotal and Aβ42 concentrations were quantified in the cell supernatant using the Aphalisa technology (Perkin Elmer). Alphalisa is a sandwich assay using biotinylated antibody attached to streptavidin coated donorbeads and antibody conjugated to acceptor beads. In the presence of antigen, the beads come into close proximity. The excitation of the donor beads provokes the release of singlet oxygen molecules that trigger a cascade of energy transfer in the acceptor beads, resulting in light emission. To quantify the amount of Aβ42 in the cell supernatant, monoclonal antibody specific to the C-terminus of Aβ42 (JRF/cAβ42/26) was coupled to the receptor beads and biotinylated antibody specific to the N-terminus of Aβ (JRF/AβN/25) was used to react with the donor beads. To quantify the amount of Aβtotal in the cell supernatant, monoclonal antibody specific to the N-terminus of Aβ (JRF/AβN/25) was coupled to the receptor beads and biotinylated antibody specific to the mid region of Aβ (biotinylated 4G8) was used to react with the donor beads.
(§4) To obtain the values reported in Table 12c, the data are calculated as percentage of the maximum amount of amyloid Beta 42 measured in the absence of the test compound. The sigmoidal dose response curves were analyzed using non-linear regression analysis with percentage of the control plotted against the log concentration of the compound. A 4-parameter equation was used to determine the IC50.

Aβtotal [4] = experiment: Screening for γ-secretase-modulating activity, Method 2: Aβtotal Alphalisa in supernatant of SKNBE2 cells carrying APP 695 wild type (Table 12c); details: Method 2, Table 12c, incubated overnight
Protocol: as §1, §2, §3, §4

| IC50 (Aβ42 [1]; Homo sapiens) [nM] | IC50 (Aβtotal [2]; Homo sapiens) [nM] | IC50 (Aβ42 [3]; Homo sapiens) [nM] | IC50 (Aβtotal [4]; Homo sapiens) [nM] | IC50 (Aβ42 [1]) [nM] | IC50 (Aβtotal [2]) [nM] | IC50 (Aβ42 [3]) [nM] | IC50 (Aβtotal [4]) [nM] | SMILES |
| --- | --- | --- | --- | --- | --- | --- | --- | --- |
| 10 | > 3020 | 14 | > 10000 |  |  |  |  | CC(=O)N(C)Cc1c(-c2ccccc2Cl)nc2c(Nc3ccc(-n4cnc(C)c4)c(F)c3)cccn12 [Compound 102] |
|  |  |  |  | 13 | > 3020 | 19 | > 10000 | COCc1c(-c2ccccc2Cl)nc2c(Nc3ccc(-n4cnc(C)c4)c(F)c3)cccn12 [Compound 103] |
|  |  |  |  | 15 | > 3020 | 60 | > 10000 | COc1cc(Nc2cccn3cc(CC(F)(F)F)nc23)ccc1-n1cnc(C)c1 [Compound 109] |
|  |  |  |  | 38 | > 3020 | 145 | > 10000 | CCOC(=O)c1cn2cccc(Nc3ccc(-n4cnc(C)c4)c(OC)c3)c2n1 [Compound 113] |
| 331 | > 3020 | 372 | > 10000 |  |  |  |  | Cc1cn(-c2ccc(Nc3cccn4cc(C5CCOCC5)nc34)cc2F)cn1 [Compound 118] |
| 1660 | > 3020 | 603 | 6170 |  |  |  |  | Cc1cn(-c2ccc(Nc3cccn4cc(C)nc34)cc2F)cn1 [Compound 119] |
| 589 | > 30200 | 363 | > 10000 |  |  |  |  | Cc1cn(-c2ccc(Nc3cccn4cc(C5CC5)nc34)cc2F)cn1 [Compound 120] |
| 11 | > 3020 | 18 | 9120 |  |  |  |  | COc1cc(Nc2cccn3c(C)c(-c4ccccc4Cl)nc23)ccc1-n1cnc(C)n1 [Compound 124] |
|  |  |  |  | 30 | > 3020 | 51 | 7940 | COCc1c(-c2ccc(F)cc2)nc2c(Nc3ccc(-n4cnc(C)n4)c(OC)c3)cccn12 [Compound 125] |
|  |  |  |  | 46 | > 10000 | 74 | > 10000 | COCCCc1c(-c2ccc(F)cc2)nc2c(Nc3ccc(-n4cnc(C)n4)c(OC)c3)cccn12 [Compound 129] |
| 631 | > 10000 | 102 | > 10000 |  |  |  |  | COc1cc(Nc2cccn3cc(-c4cc(C#N)ccc4C)nc23)ccc1-n1cnc(C)n1 [Compound 135] |
| 676 | > 30200 | 813 | > 10000 |  |  |  |  | COc1cc(Nc2cccn3cc(C4CCOCC4)nc23)ccc1-n1cnc(C)n1 [Compound 136] |
| 1380 | > 3020 | 871 | > 10000 |  |  |  |  | COc1cc(Nc2cccn3cc(CC4CCOCC4)nc23)ccc1-n1cnc(C)n1 [Compound 137] |
|  |  |  |  | 100 | > 3020 | 120 | > 10000 | COc1nc(Nc2cccn3cc(C)nc23)ccc1-n1cnc(C)c1 [Compound 144] |
|  |  |  |  | 389 | > 10000 | 174 | > 10000 | Cc1cn(-c2ccc(Nc3cc(F)cn4cc(C5CCOCC5)nc34)cc2F)cn1 [Compound 149] |
|  |  |  |  | 513 | > 3020 | 219 | > 10000 | COc1cc(Nc2cc(C(F)(F)F)cn3cc(C(C)(C)O)nc23)ccc1-n1cnc(C)c1 [Compound 151] |
|  |  |  |  | 24 | > 3020 | 28 | > 10000 | CCOC(=O)c1cn2cc(C(F)(F)F)cc(Nc3ccc(-n4cnc(C)c4)c(OC)c3)c2n1 [Compound 155] |
|  |  |  |  | 102 | > 3020 | 50 | 7410 | COc1cc(Nc2cc(Cl)nn3cc(-c4cc(F)ccc4C)nc23)ccc1-n1cnc(C)c1 [Compound 157] |
|  |  |  |  | 3020 | > 3020 | 380 | 10000 | Cc1cn(-c2ccc(Nc3cc(C(F)(F)F)nn4cc(C5CCOCC5)nc34)cc2F)cn1 [Compound 168] |
|  |  |  |  | > 3020 | > 3020 | > 10000 | > 10000 | Cc1cn(-c2ccc(Nc3cc(C(F)(F)F)nn4cc(C)nc34)cc2F)cn1 [Compound 173] |
|  |  |  |  | 41 | > 3020 | 72 | 5250 | COc1cc(Nc2nccn3cc(-c4ccc(F)cc4)nc23)ccc1-n1cnc(C)c1 [Compound 175] |
| 324 | > 10000 | 107 | 8320 |  |  |  |  | COc1cc(Nc2nccn3cc(-c4ccc(F)cc4C)nc23)ccc1-n1cnc(C)n1 [Compound 176] |
|  |  | 78 | > 10000 |  |  |  |  | COc1nc(Nc2cccn3cc(CC(F)(F)F)nc23)ccc1-n1cnc(C)c1 [Compound 179] |
|  |  |  |  |  |  | 562 | 6250 | COc1nc(Nc2cccn3cc(CC(F)(F)F)nc23)ccc1-n1cnc(C)n1 [Compound 180] |
